Laboratory results from patent publication US9725459B2, “3-oxo-tetrahydro-furo[3,2-B]pyrrol-4(5H)-yl) derivatives I” (GRÜNENTHAL GMBH, priority 2014, dated 2017).
Where two headings read alike, the source gives them in different places.

Tests used:
Type in all cases: biochemical
human cathepsin S (CatS) = human cathepsin S (CatS) (Homo sapiens (Human), UniProt P25774); assay: CatS functional enzyme assay; details: for Selectivity Ki(hCatS)/Ki(hCatK): ratio Ki(hCatS)/Ki(hCatK); for Ki: read-out: hCatS, Ki
Sequence of human cathepsin S (CatS) (P25774 115-331): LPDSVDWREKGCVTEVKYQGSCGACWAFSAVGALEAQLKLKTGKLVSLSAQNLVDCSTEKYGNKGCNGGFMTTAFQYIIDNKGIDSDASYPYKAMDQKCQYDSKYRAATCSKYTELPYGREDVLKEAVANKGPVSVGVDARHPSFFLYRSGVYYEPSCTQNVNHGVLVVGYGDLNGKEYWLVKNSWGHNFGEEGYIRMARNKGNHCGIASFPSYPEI
Procedure: Reference and test compounds were assayed for inhibitory potency (IC50) against human cathepsins using the following assay setups: Recombinant human cathepsins (CatS, CatK, CatL) were purchased from a Enzo Life Sciences. […] For CatS, the enzyme (0.0007 mU/well) was incubated with fluorogeninc substrate (Z-VVR-AMC, 5 μM) at RT for 10 min. For CatK the enzyme (0.00175 mU/well) was incubated with fluorogeninc substrate (Z-FR-AMC, 40 μM) at RT for 10 min. For CatL, the enzyme (0.000874 mU/well) was incubated with fluorogeninc substrate (Z-VVR-AMC, 40 μM) at RT for 10 min. Flourogenic substrate turnover was detected using a microplate reader (Synergy™ H4, BioTek). Ki values were calculated using the Cheng Prusoff equation (Cheng & Prosoff 1973).

human cathepsin K (CatK) = human cathepsin K (CatK) (Homo sapiens (Human), UniProt P43235); assay: CatK functional enzyme assay; details: recombinant human CatK, substrate Z-FR-AMC 40 μM, pH 5.5; Ki by Cheng Prusoff equation; read-out: hCatK, Ki
Sequence of human cathepsin K (CatK) (P43235 115-329): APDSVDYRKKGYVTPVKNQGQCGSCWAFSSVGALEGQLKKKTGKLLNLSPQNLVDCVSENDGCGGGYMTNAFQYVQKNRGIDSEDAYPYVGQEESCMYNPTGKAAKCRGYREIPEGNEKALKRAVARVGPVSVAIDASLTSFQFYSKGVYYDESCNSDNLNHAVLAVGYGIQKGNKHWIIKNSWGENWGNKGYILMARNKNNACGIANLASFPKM
Procedure: (§1) Reference and test compounds were assayed for inhibitory potency (IC50) against human cathepsins using the following assay setups:
(§2) Recombinant human cathepsins (CatS, CatK, CatL) were purchased from a Enzo Life Sciences. All assays were carried out in 96-well format using a buffer of 50 mM KH2PO4, 50 mM NaCl, 2 mM EDTA, 0.5 mM DTT and 1% Triton-X-100, pH 6.5 for Cathepsin S and a buffer of 50 mM NaOAc, 10 mM EDTA, 1 mM DTT and 0.01% Triton-X-100, pH 5.5 for CatK/L/B. For CatS, the enzyme (0.0007 mU/well) was incubated with fluorogeninc substrate (Z-VVR-AMC, 5 μM) at RT for 10 min. For CatK the enzyme (0.00175 mU/well) was incubated with fluorogeninc substrate (Z-FR-AMC, 40 μM) at RT for 10 min. For CatL, the enzyme (0.000874 mU/well) was incubated with fluorogeninc substrate (Z-VVR-AMC, 40 μM) at RT for 10 min. Flourogenic substrate turnover was detected using a microplate reader (Synergy™ H4, BioTek). Ki values were calculated using the Cheng Prusoff equation (Cheng & Prosoff 1973).

human cathepsin L (CatL) = human cathepsin L (CatL) (Homo sapiens (Human), UniProt P07711); assay: CatL functional enzyme assay; details: read-out: hCatL, inhibition [%] at 31.6 μM
Sequence of human cathepsin L (CatL) (P07711 114-333): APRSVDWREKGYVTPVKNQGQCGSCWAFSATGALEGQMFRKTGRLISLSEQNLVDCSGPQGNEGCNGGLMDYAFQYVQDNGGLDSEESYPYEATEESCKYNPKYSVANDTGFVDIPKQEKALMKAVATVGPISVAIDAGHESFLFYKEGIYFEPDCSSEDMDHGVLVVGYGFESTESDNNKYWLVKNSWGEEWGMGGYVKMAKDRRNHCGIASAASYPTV
Procedure: as §1, §2

[1] = recombinant human CatS, substrate Z-VVR-AMC 5 μM, pH 6.5, Ki by Cheng Prusoff equation

Compound	Selectivity Ki(hCatS)/Ki(hCatK) (human cathepsin S (CatS))	Ki (human cathepsin S (CatS); [1])	Ki (human cathepsin K (CatK))	inhibition at 31.6 µM (human cathepsin L (CatL))	Ki (human cathepsin S (CatS))
O=C(N[C@H](C(=O)N1C[C@H](Cl)[C@H]2OCC(=O)[C@H]21)C1CCCCC1)c1ncc(-c2ccncn2)s1 [Example 26, N-((S)-2-((3aS,6S,6aS)-6-chloro-3-oxotetrahydro-2H-furo[3,2-b]pyrrol-4(5H)-yl)-1-cyclohexyl-2-oxoethyl)-5-(pyrimidin-4-yl)thiazole-2-carboxamide]	4.6	220 nM	48 nM	32%	–
Cc1nccc(-c2cnc(C(=O)N[C@H](C(=O)N3C[C@H](Cl)[C@H]4OCC(=O)[C@H]43)C3CCCCC3)s2)n1 [Example 32, N-((S)-2-((3aS,6S,6aS)-6-chloro-3-oxotetrahydro-2H-furo[3,2-b]pyrrol-4(5H)-yl)-1-cyclohexyl-2-oxoethyl)-5-(2-methylpyrimidin-4-yl)thiazole-2-carboxamide]	15.9	317 nM	20 nM	22%	–
Cc1ccc(-c2ccc(C(=O)N[C@H](C(=O)N3C[C@H](Cl)[C@H]4OCC(=O)[C@H]43)C3CCCCC3)s2)nn1 [Example 35, N-((S)-2-((3aS,6S,6aS)-6-chloro-3-oxotetrahydro-2H-furo[3,2-b]pyrrol-4(5H)-yl)-1-cyclohexyl-2-oxoethyl)-5-(6-methylpyridazin-3-yl)thiophene-2-carboxamide]	10.7	172 nM	16 nM	23%	–
O=C(N[C@H](C(=O)N1C[C@H](Cl)[C@H]2OCC(=O)[C@H]21)C1CCCCC1)c1ccc(-c2ncncc2F)s1 [Example 36, N-((S)-2-((3aS,6S,6aS)-6-chloro-3-oxotetrahydro-2H-furo[3,2-b]pyrrol-4(5H)-yl)-1-cyclohexyl-2-oxoethyl)-5-(5-fluoropyrimidin-4-yl)thiophene-2-carboxamide]	21.3	469 nM	22 nM	9%	–
O=C(N[C@H](C(=O)N1C[C@H](Cl)[C@H]2OCC(=O)[C@H]21)C1CCCCC1)c1cc(F)c(-c2cncnc2)s1 [Example 37, N-((S)-2-((3aS,6S,6aS)-6-chloro-3-oxotetrahydro-2H-furo[3,2-b]pyrrol-4(5H)-yl)-1-cyclohexyl-2-oxoethyl)-4-fluoro-5-(pyrimidin-5-yl)thiophene-2-carboxamide]	26.7	–	15 nM	29%	401 nM
O=C(N[C@H](C(=O)N1C[C@H](Cl)[C@H]2OCC(=O)[C@H]21)C1CCCCC1)c1ccc(-c2ccc(F)nn2)s1 [Example 38, N-((S)-2-((3aS,6S,6aS)-6-chloro-3-oxotetrahydro-2H-furo[3,2-b]pyrrol-4(5H)-yl)-1-cyclohexyl-2-oxoethyl)-5-(6-fluoropyridazin-3-yl)thiophene-2-carboxamide]	10.7	213 nM	20 nM	30%	–
N#Cc1cncc(-c2ccc(C(=O)N[C@H](C(=O)N3C[C@H](Cl)[C@H]4OCC(=O)[C@H]43)C3CCCCC3)s2)c1 [Example 39, N-((S)-2-((3aS,6S,6aS)-6-chloro-3-oxotetrahydro-2H-furo[3,2-b]pyrrol-4(5H)-yl)-1-cyclohexyl-2-oxoethyl)-5-(5-cyanopyridin-3-yl)thiophene-2-carboxamide]	11.8	225 nM	19 nM	19%	–
Cc1ncc(-c2cnc(C(=O)N[C@H](C(=O)N3C[C@H](Cl)[C@H]4OCC(=O)[C@H]43)C3CCCCC3)s2)cn1 [Example 41, N-((S)-2-((3aS,6S,6aS)-6-chloro-3-oxotetrahydro-2H-furo[3,2-b]pyrrol-4(5H)-yl)-1-cyclohexyl-2-oxoethyl)-5-(2-methylpyrimidin-5-yl)thiazole-2-carboxamide]	–	144 nM	26 nM	25%	–
N#Cc1cncc(-c2cnc(C(=O)N[C@H](C(=O)N3C[C@H](Cl)[C@H]4OCC(=O)[C@H]43)C3CCCCC3)s2)c1 [Example 43, N-((S)-2-((3aS,6S,6aS)-6-chloro-3-oxotetrahydro-2H-furo[3,2-b]pyrrol-4(5H)-yl)-1-cyclohexyl-2-oxoethyl)-5-(5-cyanopyridin-3-yl)thiazole-2-carboxamide]	3.2	769 nM	243 nM	16%	–

The next lines start with the values.

Selectivity Ki(hCatS)/Ki(hCatK) (human cathepsin S (CatS))	Ki (human cathepsin S (CatS); [1])	Ki (human cathepsin K (CatK))	inhibition at 31.6 µM (human cathepsin L (CatL))	Ki (human cathepsin S (CatS))	Compound
7.2	72 nM	10 nM	28%	–	Cc1ncc(-c2ccc(C(=O)N[C@H](C(=O)N3C[C@H](Cl)[C@H]4OCC(=O)[C@H]43)C3CCCCC3)s2)cn1 [Example 30, N-((S)-2-((3aS,6S,6aS)-6-chloro-3-oxotetrahydro-2H-furo[3,2-b]pyrrol-4(5H)-yl)-1-cyclohexyl-2-oxoethyl)-5-(2-methylpyrimidin-5-yl)thiophene-2-carboxamide]
88.0	440 nM	5 nM	14%	–	O=C(N[C@H](C(=O)N1C[C@H](Cl)[C@H]2OCC(=O)[C@H]21)C1CCCCC1)c1ccc(-c2ccncc2F)s1 [Example 31, N-((S)-2-((3aS,6S,6aS)-6-chloro-3-oxotetrahydro-2H-furo[3,2-b]pyrrol-4(5H)-yl)-1-cyclohexyl-2-oxoethyl)-5-(3-fluoropyridin-4-yl)thiophene-2-carboxamide]
21.5	86 nM	4 nM	12%	–	Cc1cc(-c2ccc(C(=O)N[C@H](C(=O)N3C[C@H](Cl)[C@H]4OCC(=O)[C@H]43)C3CCCCC3)s2)ccn1 [Example 33, N-((S)-2-((3aS,6S,6aS)-6-chloro-3-oxotetrahydro-2H-furo[3,2-b]pyrrol-4(5H)-yl)-1-cyclohexyl-2-oxoethyl)-5-(2-methylpyridin-4-yl)thiophene-2-carboxamide]
37.8	453 nM	12 nM	39%	–	O=C(N[C@H](C(=O)N1C[C@H](Cl)[C@H]2OCC(=O)[C@H]21)C1CCCCC1)c1cc(F)c(-c2ccnnc2)s1 [Example 40, N-((S)-2-((3aS,6S,6aS)-6-chloro-3-oxotetrahydro-2H-furo[3,2-b]pyrrol-4(5H)-yl)-1-cyclohexyl-2-oxoethyl)-4-fluoro-5-(pyridazin-4-yl)thiophene-2-carboxamide]
25.4	356 nM	14 nM	18%	–	Cc1ccc(-c2cnc(C(=O)N[C@H](C(=O)N3C[C@H](Cl)[C@H]4OCC(=O)[C@H]43)C3CCCCC3)s2)cn1 [Example 42, N-((S)-2-((3aS,6S,6aS)-6-chloro-3-oxotetrahydro-2H-furo[3,2-b]pyrrol-4(5H)-yl)-1-cyclohexyl-2-oxoethyl)-5-(6-methylpyridin-3-yl)thiazole-2-carboxamide]
4.7	70 nM	15 nM	33%	–	Cc1cnnc(-c2ccc(C(=O)N[C@H](C(=O)N3C[C@H](Cl)[C@H]4OCC(=O)[C@H]43)C3CCCCC3)s2)c1 [Example 44, N-((S)-2-((3aS,6S,6aS)-6-chloro-3-oxotetrahydro-2H-furo[3,2-b]pyrrol-4(5H)-yl)-1-cyclohexyl-2-oxoethyl)-5-(5-methylpyridazin-3-yl)thiophene-2-carboxamide]
32.8	262 nM	8 nM	26%	–	O=C(N[C@H](C(=O)N1C[C@H](Cl)[C@H]2OCC(=O)[C@H]21)C1CCCCC1)c1ncc(-c2cccnc2)s1 [Example 45, N-((S)-2-((3aS,6S,6aS)-6-chloro-3-oxotetrahydro-2H-furo[3,2-b]pyrrol-4(5H)-yl)-1-cyclohexyl-2-oxoethyl)-5-(pyridin-3-yl)thiazole-2-carboxamide]
45.9	413 nM	9 nM	6%	–	O=C(N[C@H](C(=O)N1C[C@H](Cl)[C@H]2OCC(=O)[C@H]21)C1CCCCC1)c1ncc(-c2ccccn2)s1 [Example 46, N-((S)-2-((3aS,6S,6aS)-6-chloro-3-oxotetrahydro-2H-furo[3,2-b]pyrrol-4(5H)-yl)-1-cyclohexyl-2-oxoethyl)-5-(pyridin-2-yl)thiazole-2-carboxamide]
